Each structure is given as a SMILES string. Numbered stars: 1 amine (or outer) side, 2 acyl side, 3 side chain; on linkers, the order of the positions; unused ones are H or OH. Bridge positions count the residues as written; N and C are the ends. Square brackets hold non-standard residues; d marks the D form. Peptide text beside a SMILES is read from it. * marks the point of attachment. DOTA = O=C(O)CN1CCN(CC(=O)O)CCN(CC(=O)*)CCN(CC(=O)O)CC1; Trp(7-Me) = Cc1cccc2c(C[C@H](N)C(=O)O)c[nH]c12; X3 = O=C([C@H](Cc1ccccc1CN[*:3])N[*:1])[*:2]; 1Nal = N[C@@H](Cc1cccc2ccccc12)C(=O)O; 2Nal = N[C@@H](Cc1ccc2ccccc2c1)C(=O)O; NMetBuAla = CN[C@@H](CC(C)(C)C)C(=O)O; tBuAla = CC(C)(C)C[C@H](N)C(=O)O; NMeD = CN[C@@H](CC(=O)O)C(=O)O; AllylGly = C=CC[C@H](N)C(=O)O; Chg = N[C@H](C(=O)O)C1CCCCC1; Pen = CC(C)(S)[C@H](N)C(=O)O; αMeP = C[C@@]1(C(=O)O)CCCN1; NMeS = CN[C@@H](CO)C(=O)O; αMeS = C[C@](N)(CO)C(=O)O

This test deals with T1, human DLL3 (Homo sapiens, UniProt Q9NYJ7).
T1 construct: biotin (biotinylated)
T1 sequence (Q9NYJ7 27-618): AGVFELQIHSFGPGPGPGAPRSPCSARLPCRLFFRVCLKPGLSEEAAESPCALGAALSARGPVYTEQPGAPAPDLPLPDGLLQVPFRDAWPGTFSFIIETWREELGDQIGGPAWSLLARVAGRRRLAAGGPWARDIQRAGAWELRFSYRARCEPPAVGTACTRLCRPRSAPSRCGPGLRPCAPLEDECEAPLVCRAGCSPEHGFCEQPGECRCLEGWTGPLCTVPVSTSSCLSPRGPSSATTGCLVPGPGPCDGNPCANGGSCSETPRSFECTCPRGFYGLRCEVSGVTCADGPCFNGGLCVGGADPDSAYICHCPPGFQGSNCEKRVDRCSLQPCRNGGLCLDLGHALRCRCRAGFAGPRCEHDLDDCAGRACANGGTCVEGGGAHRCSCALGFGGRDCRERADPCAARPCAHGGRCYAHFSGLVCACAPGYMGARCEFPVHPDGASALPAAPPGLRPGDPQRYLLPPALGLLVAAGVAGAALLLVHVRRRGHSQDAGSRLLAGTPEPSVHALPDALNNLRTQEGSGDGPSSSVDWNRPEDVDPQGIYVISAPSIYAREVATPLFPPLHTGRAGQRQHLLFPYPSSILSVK
The experiment in a line: Affinity determination by Surface Plasmon Resonance (SPR), Biacore, 1:1 binding model. Conditions: biotinylated human DLL3 on streptavidin chip, 25° C.; NB = nonbinding. Summed up:
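SPR with biotinylated human DLL3 captured on a streptavidin chip, with a reference surface subtracted. Samples were injected at several concentrations at 100 μL/min in phosphate buffer with 137 mM NaCl, 2.7 mM KCl, 0.05% P20 and 2% DMSO. Kinetic and affinity constants came from a 1:1 binding fit.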
(SPR reads the build-up and loss of mass on a sensor chip optically.)
In the case of `CC(=O)N[C@H](C)C(=O)N[C@@H](CO)C(=O)N[C@@H](CC(=O)O)C(=O)N[C@H]1CSSC[C@@H](C(=O)N2CCC[C@@]2(C)C(=O)N[C@@H](Cc2ccccc2CNC(=O)CN2CCN(CC(=O)O)CCN(CC(=O)O)CCN(CC(=O)O)CC2)C(=O)N[C@@H](CC(=O)O)C(N)=O)NC(=O)[C@H](CC(N)=O)NC(=O)[C@H](Cc2ccc3ccccc3c2)NC(=O)[C@H](CCC(N)=O)NC(=O)[C@H](CC(C)(C)C)NC(=O)[C@H](Cc2cccc3ccccc23)NC1=O` [compound 159, Ac-(D-Ala)-S-D-C(3)-(1Nal)-(t-Bu-Ala)-Q-(2Nal)-N-C(3)-(aMe-P)-[OAF(DOTA)]-D-CONH2] (Ac-[dA]SDC[1Nal][tBuAla]Q[2Nal]NC[αMeP][X3](DOTA)D-NH2; disulfide 4-10), the Kd is > 30 nM. Compound `CC(=O)N[C@H](C)C(=O)N[C@@H](CO)C(=O)N[C@@H](CC(=O)O)C(=O)N[C@H]1C/C=C/C[C@@H](C(=O)N2CCC[C@@]2(C)C(=O)N[C@@H](Cc2ccccc2)C(=O)N[C@@H](CC(=O)O)C(=O)N[C@H](CCCCNC(=O)CN2CCN(CC(=O)O)CCN(CC(=O)O)CCN(CC(=O)O)CC2)C(N)=O)NC(=O)[C@H](CC(N)=O)NC(=O)[C@H](Cc2ccc3ccccc3c2)NC(=O)[C@H](CCC(N)=O)NC(=O)[C@H](CC(C)(C)C)NC(=O)[C@H](Cc2cccc3ccccc23)NC1=O` [compound 161, Ac-(D-Ala)-S-D-AllyG(4)-(1Nal)-(t-Bu-Ala)-Q-(2Nal)-N-AllyG(4)-(aMe-P)-F -D-D-Lys(DOTA)-CONH2] (Ac-[dA]SD[AllylGly][1Nal][tBuAla]Q[2Nal]N[AllylGly][αMeP]FD[dK](DOTA)-NH2; staple (E) 4-10) had a Kd of 0.24 nM. `CC(=O)N[C@H](C)C(=O)N[C@@H](CO)C(=O)N[C@@H](CC(=O)O)C(=O)N[C@@H]1C(=O)N[C@@H](Cc2cccc3ccccc23)C(=O)N[C@@H](CC(C)(C)C)C(=O)N[C@@H](CCC(N)=O)C(=O)N[C@@H](Cc2ccc3ccccc3c2)C(=O)N[C@@H](CC(N)=O)C(=O)N[C@H](C(=O)N2CCC[C@@]2(C)C(=O)N[C@@H](Cc2ccccc2)C(=O)N[C@@H](CC(=O)O)C(=O)N[C@H](CCCCNC(=O)CN2CCN(CC(=O)O)CCN(CC(=O)O)CCN(CC(=O)O)CC2)C(N)=O)CSSC1(C)C` [compound 162, Ac-(D-Ala)-S-D-Pen(3)-(1Nal)-(t-Bu-Ala)-Q-(2Nal)-N-C(3)-(aMe-P)-F -D-D-Lys(DOTA)-CONH2] (Ac-[dA]SD[Pen][1Nal][tBuAla]Q[2Nal]NC[αMeP]FD[dK](DOTA)-NH2; disulfide 4-10) registered a Kd of 224 nM. The compound `CC(=O)N[C@H](C)C(=O)N[C@@H](CO)C(=O)N[C@@H](CC(=O)O)C(=O)N[C@H]1CSSC[C@@H](C(=O)N2CCC[C@@]2(C)C(=O)N[C@@H](Cc2ccccc2)C(=O)N[C@@H](CC(=O)O)C(=O)N[C@H](CCCCNC(=O)CN2CCN(CC(=O)O)CCN(CC(=O)O)CCN(CC(=O)O)CC2)C(N)=O)NC(=O)[C@H](CC(N)=O)NC(=O)[C@H](Cc2ccc3ccccc3c2)NC(=O)[C@H](C)NC(=O)[C@H](CC(C)(C)C)NC(=O)[C@H](Cc2cccc3ccccc23)NC1=O` [compound 165, Ac-(D-Ala)-S-D-C(3)-(1Nal)-(t-Bu-Ala)-Ala-(2Nal)-N-C(3)-(aMe-P)-F-D-[D-Lys(DOTA)]-NH2] (Ac-[dA]SDC[1Nal][tBuAla]A[2Nal]NC[αMeP]FD[dK](DOTA)-NH2; disulfide 4-10) registered a Kd of 0.094 nM.

`CC(=O)N[C@H](C)C(=O)N[C@@](C)(CO)C(=O)N[C@@H](CC(=O)O)C(=O)N[C@H]1CSSC[C@@H](C(=O)N2CCC[C@@]2(C)C(=O)N[C@@H](Cc2ccccc2)C(=O)N[C@@H](CC(=O)O)C(=O)N[C@H](CCCCNC(=O)CN2CCN(CC(=O)O)CCN(CC(=O)O)CCN(CC(=O)O)CC2)C(N)=O)NC(=O)[C@H](CC(N)=O)NC(=O)[C@H](Cc2ccc3ccccc3c2)NC(=O)[C@H](CCC(N)=O)NC(=O)[C@H](CC(C)(C)C)NC(=O)[C@H](Cc2cccc3ccccc23)NC1=O` [compound 167, Ac-(D-Ala)-(aMe-Ser)-D-C(3)-(1Nal)-(t-Bu-Ala)-Q-(2Nal)-N-C(3)-(aMe-P)-F-D-[D-Lys(DOTA)]-NH2] (Ac-[dA][αMeS]DC[1Nal][tBuAla]Q[2Nal]NC[αMeP]FD[dK](DOTA)-NH2; disulfide 4-10): the Kd came out at 0.24 nM.

`CC(=O)N[C@H](C)C(=O)N(C)[C@@H](CO)C(=O)N[C@@H](CC(=O)O)C(=O)N[C@H]1CSSC[C@@H](C(=O)N2CCC[C@@]2(C)C(=O)N[C@@H](Cc2ccccc2)C(=O)N[C@@H](CC(=O)O)C(=O)N[C@H](CCCCNC(=O)CN2CCN(CC(=O)O)CCN(CC(=O)O)CCN(CC(=O)O)CC2)C(N)=O)NC(=O)[C@H](CC(N)=O)NC(=O)[C@H](Cc2ccc3ccccc3c2)NC(=O)[C@H](CCC(N)=O)NC(=O)[C@H](CC(C)(C)C)NC(=O)[C@H](Cc2cccc3ccccc23)NC1=O` [compound 169, Ac-(D-Ala)-(NMe-Ser)-D-C(3)-(1Nal)-(t-Bu-Ala)-Q-(2Nal)-N-C(3)-(aMe-P)-F-D-[D-Lys(DOTA)]-NH2] (Ac-[dA][NMeS]DC[1Nal][tBuAla]Q[2Nal]NC[αMeP]FD[dK](DOTA)-NH2; disulfide 4-10) registered a Kd of 0.057 nM. For the compound `CC(=O)N[C@H](C)C(=O)N[C@@H](CO)C(=O)N(C)[C@@H](CC(=O)O)C(=O)N[C@H]1CSSC[C@@H](C(=O)N2CCC[C@@]2(C)C(=O)N[C@@H](Cc2ccccc2)C(=O)N[C@@H](CC(=O)O)C(=O)N[C@H](CCCCNC(=O)CN2CCN(CC(=O)O)CCN(CC(=O)O)CCN(CC(=O)O)CC2)C(N)=O)NC(=O)[C@H](CC(N)=O)NC(=O)[C@H](Cc2ccc3ccccc3c2)NC(=O)[C@H](CCC(N)=O)NC(=O)[C@H](CC(C)(C)C)NC(=O)[C@H](Cc2cccc3ccccc23)NC1=O` [compound 170, Ac-(D-Ala)-S-(NMe-Asp)-C(3)-(1Nal)-(t-Bu-Ala)-Q-(2Nal)-N-C(3)-(aMe-P)-F-D-[D-Lys(DOTA)]-NH2] (Ac-[dA]S[NMeD]C[1Nal][tBuAla]Q[2Nal]NC[αMeP]FD[dK](DOTA)-NH2; disulfide 4-10), the Kd turned out to be 0.38 nM. The compound `CC(=O)N[C@H](C)C(=O)N[C@@H](CO)C(=O)N[C@@H](CC(=O)O)C(=O)N[C@H]1CSSC[C@@H](C(=O)N2CCC[C@@]2(C)C(=O)N[C@@H](Cc2ccccc2)C(=O)N[C@@H](CC(=O)O)C(=O)N[C@H](CCCCNC(=O)CN2CCN(CC(=O)O)CCN(CC(=O)O)CCN(CC(=O)O)CC2)C(N)=O)NC(=O)[C@H](CC(N)=O)NC(=O)[C@H](Cc2ccc3ccccc3c2)NC(=O)[C@H](CCC(N)=O)NC(=O)[C@H](CC(C)(C)C)N(C)C(=O)[C@H](Cc2cccc3ccccc23)NC1=O` [compound 171, Ac-(D-Ala)-S-D-C(3)-(1Nal)-(NMe-Tba)-Q-(2Nal)-N-C(3)-(aMe-P)-F -D-[D-Lys(DOTA)]-NH2] (Ac-[dA]SDC[1Nal][NMetBuAla]Q[2Nal]NC[αMeP]FD[dK](DOTA)-NH2; disulfide 4-10) came in with a Kd of 1.21 nM. The compound `CC(=O)N[C@H](C)C(=O)N[C@@H](CO)C(=O)N[C@@H](CC(=O)O)C(=O)N[C@H]1CSSC[C@@H](C(=O)N2CCC[C@@]2(C)C(=O)N[C@@H](Cc2ccccc2)C(=O)N[C@@H](CC(=O)O)C(=O)N[C@H](CCCCNC(=O)CN2CCN(CC(=O)O)CCN(CC(=O)O)CCN(CC(=O)O)CC2)C(N)=O)NC(=O)[C@H](CC(N)=O)NC(=O)[C@H](Cc2ccc3ccccc3c2)NC(=O)[C@H](CCC(N)=O)NC(=O)[C@H](CC(C)(C)C)NC(=O)[C@H](Cc2cccc3ccccc23)NC1=O` [compound 172, Ac-(D-Ala)-S-D-C(3)-(1Nal)-(t-Bu-Ala)-Q-(2Nal)-N-C(3)-(aMe-P)-F -D-[D-Lys(DOTA)]-NH2] (Ac-[dA]SDC[1Nal][tBuAla]Q[2Nal]NC[αMeP]FD[dK](DOTA)-NH2; disulfide 4-10) came in with a Kd of 0.037 nM.

For `CC(=O)N[C@H](C)C(=O)N[C@@H](CO)C(=O)N[C@@H](CC(=O)O)C(=O)N[C@H]1CSSC[C@@H](C(=O)N2CCC[C@@]2(C)C(=O)N[C@@H](Cc2ccccc2)C(=O)N[C@@H](CC(=O)O)C(=O)N[C@H](CCCCNC(=O)CN2CCN(CC(=O)O)CCN(CC(=O)O)CCN(CC(=O)O)CC2)C(N)=O)NC(=O)[C@H](CC(N)=O)NC(=O)[C@H](Cc2ccc3ccccc3c2)NC(=O)[C@H](CCC(N)=O)NC(=O)[C@H](CC(C)(C)C)NC(=O)[C@H](Cc2c[nH]c3c(C)cccc23)NC1=O` [compound 173, Ac-(D-Ala)-S-D-C(3)-(7Me-W)-(t-Bu-Ala)-Q-(2Nal)-N-C(3)-(aMe-P)-F -D-[D-Lys(DOTA)]-NH2] (Ac-[dA]SDC[Trp(7-Me)][tBuAla]Q[2Nal]NC[αMeP]FD[dK](DOTA)-NH2; disulfide 4-10), the Kd worked out at 0.48 nM. The figure for `CC(=O)N[C@H](C(=O)N[C@@H](CO)C(=O)N[C@@H](CC(=O)O)C(=O)N[C@H]1CSSC[C@@H](C(=O)N2CCC[C@@]2(C)C(=O)N[C@@H](Cc2ccccc2)C(=O)N[C@@H](CC(=O)O)C(N)=O)NC(=O)[C@H](CC(N)=O)NC(=O)[C@H](Cc2ccc3ccccc3c2)NC(=O)[C@H](CCCCNC(=O)CN2CCN(CC(=O)O)CCN(CC(=O)O)CCN(CC(=O)O)CC2)NC(=O)[C@H](CC(C)(C)C)NC(=O)[C@H](Cc2cccc3ccccc23)NC1=O)C1CCCCC1` [compound 174, Ac-(Chg)-S-D-C(3)-(1Nal)-(t-Bu-Ala)-[L-Lys(DOTA)]-(2Nal)-N-C(3)-(aMe-P)-F -D-CONH2] (Ac-[Chg]SDC[1Nal][tBuAla]K(DOTA)[2Nal]NC[αMeP]FD-NH2; disulfide 4-10) is 0.23 nM.

What is called Kd is a measure of binding affinity in units of concentration. Read a high Kd as weaker binding.

For the origin of these results see patent US20250186541A1, “DLL3 TARGETING PEPTIDES AND CONSTRUCTS THEREOF” (MARIANA ONCOLOGY INC., priority 2023, published 2025).
